From patent publication US9675614B2, “PRMT5 inhibitors and uses thereof” (Epizyme, Inc., priority 2012, dated 2017)

Target: PRMT5/MEP50 (Homo sapiens (Human), UniProt O14744)
Experiment: PRMT5 Biochemical Assay (PRMT5/MEP50 enzyme assay on peptide substrate, 3H-SAM Flashplate)
Conditions: PRMT5/MEP50 biochemical assay; read-out: Biochemical IC50

PRMT5/MEP50, sequence (O14744 other isoform, or with tags, fused parts or gaps): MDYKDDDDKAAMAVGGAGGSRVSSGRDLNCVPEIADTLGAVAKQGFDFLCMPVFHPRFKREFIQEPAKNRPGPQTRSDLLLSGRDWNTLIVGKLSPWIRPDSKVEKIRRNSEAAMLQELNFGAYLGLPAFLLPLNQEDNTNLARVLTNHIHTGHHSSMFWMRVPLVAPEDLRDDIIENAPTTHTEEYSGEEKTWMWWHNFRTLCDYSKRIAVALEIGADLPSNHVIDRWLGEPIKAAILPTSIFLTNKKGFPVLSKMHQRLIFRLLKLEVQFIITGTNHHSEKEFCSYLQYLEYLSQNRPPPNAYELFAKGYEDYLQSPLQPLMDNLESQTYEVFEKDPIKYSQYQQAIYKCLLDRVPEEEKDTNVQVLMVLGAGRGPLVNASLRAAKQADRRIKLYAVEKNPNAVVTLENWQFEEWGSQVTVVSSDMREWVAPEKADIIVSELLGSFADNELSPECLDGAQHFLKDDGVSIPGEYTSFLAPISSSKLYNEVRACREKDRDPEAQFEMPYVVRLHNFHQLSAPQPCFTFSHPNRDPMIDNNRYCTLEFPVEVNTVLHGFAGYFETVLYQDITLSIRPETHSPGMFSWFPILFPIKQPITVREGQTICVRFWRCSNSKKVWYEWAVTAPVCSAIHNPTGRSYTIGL
PRMT5/MEP50, sequence (Q9BQA1 other isoform, or with tags, fused parts or gaps partner): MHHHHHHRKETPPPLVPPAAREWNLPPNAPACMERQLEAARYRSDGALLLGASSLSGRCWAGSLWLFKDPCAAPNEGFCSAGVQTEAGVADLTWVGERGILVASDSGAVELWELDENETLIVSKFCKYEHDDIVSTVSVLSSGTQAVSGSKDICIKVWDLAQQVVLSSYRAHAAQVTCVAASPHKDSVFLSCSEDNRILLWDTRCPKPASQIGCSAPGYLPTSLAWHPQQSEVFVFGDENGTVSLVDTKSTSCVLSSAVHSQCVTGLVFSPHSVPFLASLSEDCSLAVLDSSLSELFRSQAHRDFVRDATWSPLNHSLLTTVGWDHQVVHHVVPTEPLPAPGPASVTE

IC50 [nM]	Structure (SMILES)
< 100	Cc1ccc(NC2CCOC2)cc1C(=O)NCC(O)CN1CCc2ccccc2C1 (stereo not drawn) [Compound 96]
< 100	O=C(NC[C@H](O)CN1CCc2ccccc2C1)c1ccnc(NCC2CCCNC2)c1 (stereo partly drawn) [Compound 236]
101 to 1000	O=C(NC[C@H](O)CN1CCc2ccccc2C1)Nc1ccccc1 [Compound 5]
< 100	O=C(NC[C@H](O)CN1CCc2ccccc2C1)c1nc2cc(Br)ccc2[nH]1 [Compound 319]
< 100	CN1CCN(Cc2ccc(C(=O)NCC(O)CN3CCc4ccccc4C3)cc2)CC1 (stereo not drawn) [Compound 163]
< 100	O=C(NCC(O)CN1CCc2ccccc2C1)c1cccc(CC2CCOCC2)c1 (stereo not drawn) [Compound 59]
< 100	CC(=O)N1CCC(Oc2cc(C(=O)NC[C@H](O)CN3CCc4ccccc4C3)ccn2)CC1 [Compound 205]
< 100	O=C(NCC(O)CN1CCc2ccccc2C1)c1cccc(OC2CCN(CC(F)(F)F)C2)c1 (stereo not drawn) [Compound 137]
< 100	CC(=O)N1CCC(Oc2ccc(C(=O)NCC(O)CN3CCc4ccccc4C3)cc2)CC1 (stereo not drawn) [Compound 107]
101 to 1000	O=C(NCC(O)CN1CCc2ccccc2C1)c1ccn[nH]1 (stereo not drawn) [Compound 148]
< 100	O=C(NC[C@H](O)CN1CCc2ccccc2C1)c1cc(OC2CCOCC2)ncn1 [Compound 256]
< 100	O=C(NC[C@H](O)CN1CCc2ccccc2C1)c1ccc(OC2CCN(CCO)CC2)cc1 [Compound 321]
< 100	CC(=O)N1CC[C@@H](Nc2cccc(C(=O)NC[C@H](O)CN3CCc4ccccc4C3)c2)C1 [Compound 293]
< 100	C[C@H]1CC(Nc2cccc(C(=O)NC[C@H](O)CN3CCc4ccccc4C3)c2)CCO1 (stereo partly drawn) [Compound 167]
< 100	CN(c1cc(C(=O)NC[C@H](O)CN2CCc3ccccc3C2)ccn1)C1CCC1 [Compound 333]
101 to 1000	O=C(NC[C@@H](O)CN1CCc2ccccc2C1)c1cccc(OC2CCOCC2)c1 [Compound 83]
< 100	CN1CCC(Nc2cc(C(=O)NC[C@H](O)CN3CCc4ccccc4C3)ncn2)C1 (stereo partly drawn) [Compound 181]
< 100	CC(C)(C)c1cc(Nc2cc(C(=O)NC[C@H](O)CN3CCc4ccccc4C3)ccn2)n[nH]1 [Compound 326]
< 100	CN(C)CCOc1cc(C(=O)NC[C@H](O)CN2CCc3ccccc3C2)ccn1 [Compound 234]

IC50 [nM]	Structure (SMILES)
< 100	O=C(NC[C@H](O)CN1CCc2ccccc2C1)c1cc(NC2CCOC2)ncn1 (stereo partly drawn) [Compound 230]
< 100	CC(=O)N1CCC(Nc2cccc(C(=O)NCC(O)CN3CCc4ccccc4C3)c2)CC1 (stereo not drawn) [Compound 124]
< 100	O=C(NC[C@H](O)CN1CCc2ccccc2C1)c1cncc(NC2CCOCC2)c1 [Compound 298]
101 to 1000	O=C(NC[C@H](O)CN1CCc2ccccc2C1)c1cncc(OC2CCN(CC(F)(F)F)CC2)c1 [Compound 289]
< 100	CC(=O)N(C)CCN1CCN(Cc2cccc(C(=O)NCC(O)CN3CCc4ccccc4C3)c2)CC1 (stereo not drawn) [Compound 252]
101 to 1000	CC1=NN(c2ccc(C(=O)NCC(O)CN3CCc4ccccc4C3)cc2)C(=O)C1 (stereo not drawn) [Compound 86]
< 100	CN1CCC(Oc2cc(C(=O)NC[C@H](O)CN3CCc4ccccc4C3)ccn2)CC1 [Compound 202]
< 100	O=C(NC[C@H](O)CN1CCc2ccccc2C1)c1cc(NC2CCOCC2)ncn1 [Compound 193]
< 100	O=C(NC[C@H](O)CN1CCc2ccccc2C1)c1ccnc(NC2CCN(CC(F)(F)F)C2)c1 (stereo partly drawn) [Compound 226]
< 100	CNC(=O)CN1CCN(Cc2cccc(C(=O)NCC(O)CN3CCc4ccccc4C3)c2)CC1 (stereo not drawn) [Compound 173]
< 100	O=C(NC[C@H](O)CN1CCc2ccccc2C1)c1cc2cccc(Cl)c2[nH]1 [Compound 276]
101 to 1000	O=C(NCC(O)CN1CCc2ccccc2C1)c1ncc[nH]1 (stereo not drawn) [Compound 170]
< 100	Cn1nccc1-c1cccc(C(=O)NCC(O)CN2CCc3ccccc3C2)c1 (stereo not drawn) [Compound 2, N-(3-(3,4-dihydroisoquinolin-2(1H)-yl)-2-hydroxypropyl)-3-(1-methyl-1H-pyrazol-5-yl)benzamide]
< 100	O=C(NC[C@H](O)CN1CCc2ccccc2C1)c1cncc(NC2CCNC2)c1 (stereo partly drawn) [Compound 259]
< 100	CS(=O)(=O)N1CC(Nc2cc(C(=O)NC[C@H](O)CN3CCc4ccccc4C3)ncn2)C1 [Compound 283]
< 100	O=C(NC[C@@H](O)CN1CCc2ccccc2C1)c1ccnc(NC2CCOCC2)c1 [Compound 184]
1000 to 10000	O=C(NC[C@@H](O)CN1CCc2ccccc2C1)Nc1ccccc1 [Compound 6]
< 100	O=C(NC[C@H](O)CN1CCc2ccccc2C1)c1cncc(NC2COC2)c1 [Compound 299]
< 100	O=C(NCC(O)CN1CCc2ccccc2C1)c1cccc(-c2cccnc2)c1 (stereo not drawn) [Compound 8, N-(3-(3,4-dihydroisoquinolin-2(1H)-yl)-2-hydroxypropyl)-3-(pyridin-3-yl)benzamide]

IC50 [nM]	Structure (SMILES)
< 100	CS(=O)(=O)N1CCC(Oc2ccc(C(=O)NCC(O)CN3CCc4ccccc4C3)cc2)CC1 (stereo not drawn) [Compound 108]
< 100	O=C(NC[C@H](O)CN1CCc2ccccc2C1)c1cccc2c1OCCO2 [Compound 249]
< 100	CN1CCN(Cc2cccc(C(=O)NCC(O)CN3CCc4ccccc4C3)c2)CC1 (stereo not drawn) [Compound 30, N-(3-(3,4-dihydroisoquinolin-2(1H)-yl)-2-hydroxypropyl)-3-((4-methylpiperazin-1-yl)methyl)benzamide]
< 100	O=C(NC[C@H](O)CN1CCc2ccccc2C1)c1ccc2c(c1)OCCO2 [Compound 274]
< 100	COCCN1CCC(Oc2ccc(C(=O)NC[C@H](O)CN3CCc4ccccc4C3)cc2)CC1 [Compound 329]
< 100	O=C(NC[C@H](O)CN1CCc2ccccc2C1)c1cncc(NC2CCN(CC(F)(F)F)CC2)c1 [Compound 300]
< 100	CCN1CCN(Cc2cccc(C(=O)NCC(O)CN3CCc4ccccc4C3)c2)CC1 (stereo not drawn) [Compound 90]
< 100	O=C(NCC(O)CN1CCc2ccccc2C1)c1ccc(NC2CCNCC2)cc1 (stereo not drawn) [Compound 138]
< 100	O=C(NC[C@H](O)CN1CCc2ccccc2C1)c1ccnc(NC2CCCCC2)c1 [Compound 335]
< 100	O=C(NCC(O)CN1CCc2ccccc2C1)c1cccc(NC2CCOCC2)c1F (stereo not drawn) [Compound 79]
< 100	CC(=O)N1CC[C@H](Nc2cccc(C(=O)NC[C@H](O)CN3CCc4ccccc4C3)c2)C1 [Compound 266]
< 100	CC(C)N1CCC(Oc2ccc(C(=O)NCC(O)CN3CCc4ccccc4C3)cc2)C1 (stereo not drawn) [Compound 196]
< 100	O=C(NCC(O)CN1CCc2ccccc2C1)c1cc(Cl)cc(NC2CCOCC2)c1 (stereo not drawn) [Compound 64]
< 100	O=C(NCC(O)CN1CCc2ccccc2C1)c1cccc(NC2CCN(CC(F)(F)F)C2)c1 (stereo not drawn) [Compound 102]
< 100	O=C(NC[C@H](O)CN1CCc2ccccc2C1)c1ccnc(NC2CCNC2)c1 (stereo partly drawn) [Compound 201]
< 100	O=C(NC[C@@H](O)CN1CCc2ccccc2C1)c1cccc(-c2ccccn2)c1 [Compound 19]
< 100	CN1CCOC(CNc2cc(C(=O)NC[C@H](O)CN3CCc4ccccc4C3)ccn2)C1 (stereo partly drawn) [Compound 265]
< 100	CS(=O)(=O)N1CCC(Nc2cccc(C(=O)NCC(O)CN3CCc4ccccc4C3)c2)CC1 (stereo not drawn) [Compound 125]

Structure (SMILES)	IC50 [nM]
CN(C[C@H](O)CN1CCc2ccccc2C1)C(=O)c1cc(NC2CCOCC2)ncn1 [Compound 232]	101 to 1000
